Holding throughout (experiment): relative viability (nuclei count vs DMSO), 5 days (fraction); higher = more cells survive
Compound in experiment [1]: C#Cc1cccc(Nc2ncnc3cc(OC)c(OCCCCCCC(=O)NO)cc23)c1 [CUDC-101] + COc1cc2c(Oc3ccc(NC(=O)C4(C(=O)Nc5ccc(F)cc5)CC4)cc3F)ccnc2cc1OCCCN1CCOCC1 [Foretinib] (partner 0.25 µM)
The method in brief:
(§1)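 Relative viability divides the nuclei count in treated wells by that in vehicle wells. Lung cancer cell lines were seeded in 1536-well plates, dosed by pin tool the next day, and fixed and stained after 5 days in one step with final 0.05% Triton X-100, 1% formaldehyde and 1 ug/ml Hoechst. Dosing was a single drug or a fixed anchor-drug dose plus five library-drug doses (not always all listed) in √10 steps, and values are medians of duplicate plates imaged at 4×.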

Compound in experiment [2]: C#Cc1cccc(Nc2ncnc3cc(OC)c(OCCCCCCC(=O)NO)cc23)c1 [CUDC-101] + CC1(C)CCC(c2ccc(Cl)cc2)=C(CN2CCN(c3ccc(C(=O)NS(=O)(=O)c4ccc(N[C@H](CCN5CCOCC5)CSc5ccccc5)c(S(=O)(=O)C(F)(F)F)c4)cc3)CC2)C1 [Navitoclax] (partner 0.5 µM)
The method in brief: as §1

Compound in experiment [3]: COc1cc2/c(=N/c3ccc(Br)cc3F)nc[nH]c2cc1OCC1CCN(C)CC1 [Vandetanib] + Nc1nc2[nH]cc(CCc3ccc(C(=O)N[C@@H](CCC(=O)O)C(=O)O)cc3)c2c(=O)[nH]1 [Pemetrexed] (partner 0.2 µM)
The method in brief: as §1

Compound in experiment [4]: COc1cc(N2CCC(N3CCN(C)CC3)CC2)ccc1Nc1ncc(Cl)c(Nc2ccccc2S(=O)(=O)C(C)C)n1 [NVP-TAE684] + CCNC(=O)c1noc(-c2cc(C(C)C)c(O)cc2O)c1-c1ccc(CN2CCOCC2)cc1 [Luminespib] (partner 0.01 µM)
The method in brief:
as §1

In the case of UMC-11, the relative viability in experiment [1] (first compound 0.01 µM) came to 1.06; in experiment [1] (first compound 0.03162 µM) it was 1.03; in experiment [1] (first compound 0.1 µM), 0.945; in experiment [1] (first compound 0.3162 µM) it was 0.317; in experiment [1] (first compound 1 µM), 0.106; in experiment [2] (first compound 0.01 µM), 0.313. The relative viability is 0.302 in experiment [2] (first compound 0.03162 µM); 0.257 in experiment [2] (first compound 0.1 µM); 0.225 in experiment [2] (first compound 0.3162 µM); 0.0766 in experiment [2] (first compound 1 µM); 0.764 in experiment [3] (first compound 0.02 µM); 0.799 in experiment [3] (first compound 0.06325 µM). Moreover, the relative viability was 0.801 in experiment [3] (first compound 0.2 µM); 0.721 in experiment [3] (first compound 0.6325 µM); 0.667 in experiment [3] (first compound 2 µM); 0.879 in experiment [4] (first compound 0.2 µM); 0.946 in experiment [4] (first compound 0.6325 µM); 0.297 in experiment [4] (first compound 2 µM).

The values above are taken from the supplement of paper PMC10307832.
